Assay results: US20170157251A1, “Bi-Specific Monovalent Diabodies That are Capable of Binding CD19 and CD3, and Uses Thereof” (MacroGenics, Inc., priority 2015, published 2017)

Experiments:
Raji.luc lymphoma cells = assay: Disseminated Raji.luc model in human PBMC-reconstituted mice, early treatment; settings: 12 doses
Raji tumor cells = assay: Raji co-mix xenograft with activated human T cells; format: in vivo, NOD/SCID mice; settings: end of the study (Day 28)
Description: (§1) In both studies, human T cells and tumor cells (HBL-2 or Raji) were combined at a ratio of 1:5 (1×10^6 and 5×10^6 cells, respectively) and injected SC into mice on Day 0.

HBL-2 tumor cells [1] = assay: HBL-2 co-mix xenograft with activated human T cells; format: in vivo, NOD/SCID mice; settings: by Day 13
Description: as §1

Raji.luc cells = assay: Disseminated Raji.luc model in human PBMC-reconstituted mice, established tumor; settings: treatment from Study Day 15, 9 doses; DART-A 0.16 μg/kg to 0.5 mg/kg, Control DART 1 0.1 mg/kg
[2] = Human FcRn transgenic mouse pharmacokinetic study; format: in vivo; settings: human FcRn transgenic mice
Description: Three human mAbs were also evaluated in same test system for comparison and had terminal half-lives ranging from 58.7 to 102.7 hours.

CD20+ B cells [3] = assay: Autologous B cell depletion in human PBMCs; format: cell-based
Description: (§2) Potential differences in CD19 expression levels between human and cynomolgus monkey B cells may be another variable factor contributing to the apparent difference in potency.

HBL-2 tumor cells [4] = assay: Established HBL-2 xenograft model with human PBMCs; format: in vivo, NSG B2m−/− mice
Description: Mice were implanted with HBL-2 tumor cells (5×10^6 cells) intradermally (ID) on Day 0 followed by intraperitoneal (IP) injection of PBMCs (5×10^7 cells) on Day 4.
However, prior to the third (Study Day 24) and fourth (Study Day 28) doses, the tumor volumes were 1469±162 and 848±74 mm^3, respectively, representing a 36% and 63%, respectively, decrease in tumor volume with respect to the peak volume recorded on Study Day 21 (FIG. 19B). The tumors continued to decrease in size to the extent that on Day 42, the average tumor volume was 248±52 mm^3, an 89% decrease in the tumor volume (FIG. 19B).

[5] = test system: human CD8+ and CD4+ T cells; assay: Intracellular granzyme B and perforin in T cells in CTL assay; format: cell-based; settings: 24 hours, Raji/GF target cells, E:T 10:1
Description: Of note, the upregulation of granzyme B (FIG. 15A) and perforin (FIG. 15B) was higher in CD8+ T cells compared with CD4+ T cells, consistent with the expected higher CTL potency of CD8+ T cells.

CD20+ B cells [6] = assay: Autologous B cell depletion in cynomolgus monkey PBMCs; format: cell-based
Description: as §2

human T cells = assay: Cytokine release by human T cells in the presence of Raji/GF target cells (ELISA); format: cell-based; settings: co-incubation with Raji/GF target cells
[7] = test system: human T cells with JIMT-1 cells; assay: Human T cell activation in the presence of CD19-negative JIMT-1 cells; format: cell-based
[8] = test system: cynomolgus monkey CD4+ and CD8+ T cells; assay: Cynomolgus monkey T cell activation (CD25, CD69) during redirected killing of Raji/GF cells; format: cell-based; settings: Raji/GF target cells
Description: (§3) The effect on T cells during DART-A-mediated redirected target cell (Raji/GF cells) lysis was characterized by evaluating expression of the T cell activation markers CD69 and CD25.

[9] = test system: CFSE-labeled human T cells; assay: Proliferation of CFSE-labeled human T cells co-cultured with HBL-2 target cells; format: cell-based; settings: 200 ng/mL, E:T 10:1, 72 hours
Description: The expansion of T cells during effector:target cell co-engagement by […] was also evaluated, given that proliferation concomitant with T cell activation has been previously reported. […] Proliferation of CFSE-labeled T cells was monitored by levels of CFSE dilution over time by FACS analysis (FIGS. 16A-16B).

[10] = test system: CLL malignant B cells (CD20+/CD5+); assay: Autologous depletion of malignant B cells in CLL primary patient PBMCs; format: cell-based, human
Description: Due to the limited patient sample availability, only 2 concentrations (50 ng/mL and 200 ng/mL) were tested. The percentages of CLL malignant B cells (CD19+/CD5+ or CD20+/CD5+) and T cells (CD19−/CD5+ or CD4+ and CD8+) were measured by flow cytometry prior to treatment and following treatment for 3 and 6 days.

[11] = test system: human CD4+ and CD8+ T cells; assay: Human T cell activation (CD25, CD69) during redirected killing of Raji/GF cells; format: cell-based; settings: Raji/GF target cells
Description: as §3

Raji/GF cells = assay: Redirected killing of target tumor cells using human T cells, Raji/GF; format: cell-based; settings: HBL-2, Raji/GF, Jeko-1; E:T 10:1

Control DART 1: control DART capable of binding to fluorescein and CD3 [reference compound]
efficacy in dose-range finding study (Raji.luc lymphoma cells; 0.16 μg/kg to 0.5 mg/kg): rapid progression of Raji.luc tumor growth
Study Day by which all mice died or were humanely sacrificed (Raji.luc lymphoma cells; 0.5 mg/kg IV): ≤ 53 Study Day
average tumor volume (Raji tumor cells): 2968.2±200.0 mm3
average tumor volume (HBL-2 tumor cells [1]): approximately 1000 mm^3
tumor burden / tumor progression, dose-range finding (Raji.luc cells): slight delay of tumor progression
terminal half-life [2]: 92.1 h
CD20+ B cell depletion (CD20+ B cells [3]): no B cell depletion was observed
average tumor volume (HBL-2 tumor cells [4]; Day 21 (2nd dose), treatment from Day 17, DART-A 0.5 mg/kg IV): 1185.6±138.7 mm^3
average tumor volume (HBL-2 tumor cells [4]; Day 24 (3rd dose), treatment from Day 17): 2623.7±351.5 mm^3
granzyme B and perforin levels in CD8+ and CD4+ T cells [5]: no upregulation of granzyme B or perforin was observed
CD20+ B cell depletion (CD20+ B cells [6]): no B cell depletion was observed
cytokine production (human T cells): did not result in any detectable cytokine production
T cell activation [7]: fail to mediate human T cell activation
T cell activation markers CD25 and CD69 [8]: did not mediate induction of T cell activation markers
cells proliferating (CFSE dilution) [9]: no proliferation of CFSE-labeled T cells was observed
CD4+ ([10]; Day 3, 50 ng/mL): 3.08%
CD8+ ([10]; Day 3, 50 ng/mL): 1.81%
CD20+/CD5+ ([10]; Day 3, 50 ng/mL, E:T = 1:23): 73.5%
CD4+ ([10]; Day 3, 200 ng/mL): 3.23%
CD8+ ([10]; Day 3, 200 ng/mL): 1.62%
CD20+/CD5+ ([10]; Day 3, 200 ng/mL): 72.9%
CD4+ ([10]; Day 6, 50 ng/mL): 3.54%
CD8+ ([10]; Day 6, 50 ng/mL): 2.26%
CD20+/CD5+ ([10]; Day 6, 50 ng/mL): 74.9%
CD25+/CD4+ ([10]; Day 6, 50 ng/mL): 1.4%
CD25+/CD8+ ([10]; Day 6, 50 ng/mL): 20.6%
CD4+ ([10]; Day 6, 200 ng/mL): 2.79%
CD8+ ([10]; Day 6, 200 ng/mL): 1.82%
CD20+/CD5+ ([10]; Day 6, 200 ng/mL): 73.4%
CD25+/CD4+ ([10]; Day 6, 200 ng/mL): 1.4%
CD25+/CD8+ ([10]; Day 6, 200 ng/mL): 14.3%
B cell killing or upregulation of CD25 ([10]; through Day 6): no B cell killing or upregulation of CD25 was observed
T cell activation markers CD25 and CD69 [11]: did not mediate induction of T cell activation markers
T cell redirected killing of target cells (Raji/GF cells): did not mediate T cell redirected killing of target cells
